In patent publication US20250152720A1, “NEW CARBOHYDRATE DERIVATIVES AS MIMETICS OF BLOOD GROUP A AND B ANTIGENS” (REMAB THERAPEUTICS SL, priority 2022, published 2025):

What was measured:
[1] = system: purified anti-B antibodies binding to red blood cells (Group B); test: Flow Cytometry inhibition of binding of purified anti-B antibodies to red blood cells (Group B) (Example 6.4); format: cell-based, human; conditions: anti-B 1 μg/mL
Procedure: The capacity to inhibit the binding of purified anti-B antibodies to red blood cells (Group B), measured by Flow Cytometry was tested. The Flow Cytometry assay was performed as follows: […] Afterwards, primary antibodies with the corresponding inhibitor were added. […] The samples were then incubated for 30 minutes at 37° C. (in the dark, mild horizontal shaking 30-40 rpm). Afterwards the samples were washed twice with PBS (centrifuged at 300 g. 3 minutes), and the supernatants were removed by aspiration. Then, 50 μL of the corresponding fluorochrome secondary anti-Ig antibody (7.5 μg/mL of goat anti-human IgG Alexa Fluor 647. Jackson Immunoresearch, West Grove, PA, USA, and 20 μg/mL of goat anti-human IgM C[…], Sigma-Aldrich, St. Louis, MO, USA) diluted in PBS were added to the RBC and incubated for 35 minutes at 37° C. (in the dark). The samples were washed twice with PBS (centrifuged at 300 g, 3 minutes), and the supernatants were removed by aspiration. Finally, the cells were resuspended in filtered PBS. Cells incubated with only PBS were used as a negative control for the experiment. Cells incubated only with secondary antibodies were considered background signals. Flow Cytometry analysis was performed on a Beckman Coulter Gallios Flow Cytometry analyzer using the blue (488 nm-22 mW) and red (635 nm-25 mW) solid-state laser as exciting source. Every single FACS determination recorded about 20,000 total events. Data was analyzed with KALUZA software (Beckman Coulter, CA, USA). The inhibitory capacity was expressed as a percentage of removal referred to the baseline condition (in ordinates).

[2] = system: purified human anti-B antibodies (IgG, IgM); conditions: IgG 0,095 ug/mL and IgM 0.045 ug/mL; increasing glycoconjugate concentrations (0-400 μg/mL); versus Comparative-1; FIG. 11
Procedure: (§1) ELISA: Maxisorp 96-well flat-bottom plates (Thermo Scientific, Waltham, MA, US) were coated for 18 hours at 4° C. with 50 μL/well of 10 μg/mL of the following PAA-glycoconjugates (as disclosed above in Table 3): 1 (B natural type2) and 5 (A natural type2); in coating buffer (0.05 M carbonate-bicarbonate, pH 9.6). Wells coated only with 50 μL/well of 10 μg/mL of PAA were considered the background of each sample assessed. After coating, the plates were washed three times with 200 μL/well of 0.1% (v/v) PBST using an autowasher and blocked for 1 hour at 4° C. with 100 μL/well of 0.1% (v/v) PBST+1% (w/v) BSA. Washing steps were repeated.
The inhibition samples were prepared in separate tubes using a fixed concentration of anti-A or anti-B antibodies, and an increasing concentration of the following polylysine glycoconjugate inhibitors, prepared in Example 4 (0-400 μg/mL): • Comparative-1 (comprising natural B type-II antigen) • Example 4.1 (comprising analogue of Example 1.1) • Comparative-2 (comprising natural A type-II antigen) • Example 4.8 (comprising analogue of Example 1.8) […]
(§2) After washing steps, plates were incubated for 0.5 hours at 25° C. […] The reaction was stopped with 50 μL/well of 3N HCl, and the resulting absorbance was registered at 490 nm using a microplate reader.
The percentage of removal (%) was calculated referred to the baseline condition (without inhibitor compound). […]

[3] = system: purified human anti-A antibodies (IgG, IgM); conditions: IgG 0.075 ug/mL and IgM 0.185 ug/mL; glycoconjugate at 10, 100 and 400 μg/mL; versus Comparative-2; FIG. 10
Procedure: as §1
The tubes were incubated for 18 hours at 4° C. and then a convenient dilution of inhibition mix to the ELISA plate (50 μL/vell) was added and incubated for 0.5 hours at 25° C. in a rocker.
as §2
To quantify the antibody levels. […]
The percentage of removal (%) was calculated referred to the baseline condition (without inhibitor compound).

“Polyfysine DP1000 conjugate with tetrasaccharide Glcα1-3(Fucα1-2)Galβ1-4GlcNAcβ (Example 1.1) (25%) [Example 4.1]” was tested, and the “percentage of removal referred to the baseline condition, IgG” value ([1]; inhibitor 2.5 ug/mL) was 5.64%, the “percentage of removal referred to the baseline condition, IgM” value ([1]; inhibitor 2.5 ug/mL) was 6.35% and the “capacity to inhibit human purified anti-B antibodies (percentage of removal)” value [2] was “lower capacity to inhibit human purified anti-B antibodies than the natural comparator”.

In the case of “Polylysine DP1000 Conjugate with Galα1-3(Fucα1-2)Galβ1-4GlcNAcβB (Type2) Tetrasaccharide [Comparative-1, reference compound]”, the “percentage of removal referred to the baseline condition, IgG” value ([1]; inhibitor 0.25 ug/mL) is reported as 15.12% and the “percentage of removal referred to the baseline condition, IgM” value ([1]; inhibitor 0.25 ug/mL) is reported as 26.4%.

For “Polylysine DP1000 Conjugate with Trisaccharide GlcNAcα1-3(Fucα1-2)Galβ (Example 1.8) (25%) [Example 4-8]”, the “capacity to inhibit human purified anti-A antibodies (percentage of removal)” value [3] was “higher capacity to inhibit human purified anti-A antibodies than the comparator”.
